Laboratory results published in ChEMBL document CHEMBL1137957, “Probing pockets S2-S4' of the gamma-secretase active site with (hydroxyethyl)urea peptidomimetics” (Bioorg Med Chem Lett, 2004).

The molecules below were run against Gamma-secretase (assay: Inhibition of amyloid-beta production in Chinese hamster ovary (CHO) cells expressing human amyloid precursor protein (APP)).
Assay type: functional, cell-based

IC50 [nM]	Compound
250	COC(=O)[C@H](Cc1ccccc1)NC(=O)[C@@H](NC(=O)[C@H](CC(C)C)NC(=O)N(Cc1ccccc1)C[C@@H](O)[C@H](Cc1ccccc1)NC(=O)OC(C)(C)C)C(C)C
530	COC(=O)[C@@H](NC(=O)[C@@H](NC(=O)[C@H](CC(C)C)NC(=O)N(Cc1ccccc1)C[C@@H](O)[C@H](Cc1ccccc1)NC(=O)OC(C)(C)C)C(C)C)C(C)C
270	CC[C@H](C)[C@H](NC(=O)[C@@H](NC(=O)[C@H](CC(C)C)NC(=O)N(Cc1ccccc1)C[C@@H](O)[C@H](Cc1ccccc1)NC(=O)OC(C)(C)C)C(C)C)C(=O)OC
400	COC(=O)[C@H](Cc1ccccc1)NC(=O)[C@H](CC(C)C)NC(=O)N(CC(C)C)C[C@@H](O)[C@H](Cc1ccccc1)NC(=O)OC(C)(C)C
670	COC(=O)[C@H](C)NC(=O)[C@@H](NC(=O)[C@H](CC(C)C)NC(=O)N(Cc1ccccc1)C[C@@H](O)[C@H](Cc1ccccc1)NC(=O)OC(C)(C)C)C(C)C
22000	COC(=O)[C@H](Cc1ccccc1)NC(=O)[C@H](CC(C)C)NC(=O)N(C[C@@H](O)[C@H](Cc1ccccc1)NC(=O)OC(C)(C)C)C(C)C
70	COC(=O)[C@@H](NC(=O)[C@H](CC(C)C)NC(=O)N(Cc1ccccc1)C[C@@H](O)[C@H](Cc1ccccc1)NC(=O)[C@@H](NC(=O)OC(C)(C)C)C(C)C)C(C)C
140	COC(=O)[C@H](Cc1ccccc1)NC(=O)[C@H](C)NC(=O)N(Cc1ccccc1)C[C@@H](O)[C@H](Cc1ccccc1)NC(=O)OC(C)(C)C
20000	COC(=O)[C@H](C)NC(=O)[C@H](CC(C)C)NC(=O)N(Cc1ccccc1)C[C@@H](O)[C@H](Cc1ccccc1)NC(=O)OC(C)(C)C

More lines, now with the values behind:

Compound	IC50 [nM]
COC(=O)[C@H](Cc1ccccc1)NC(=O)[C@H](CC(C)C)NC(=O)N(C)C[C@@H](O)[C@H](Cc1ccccc1)NC(=O)OC(C)(C)C	3100
COC(=O)[C@H](CC(C)C)NC(=O)[C@@H](NC(=O)[C@H](CC(C)C)NC(=O)N(Cc1ccccc1)C[C@@H](O)[C@H](Cc1ccccc1)NC(=O)OC(C)(C)C)C(C)C	540
COC(=O)[C@H](CC(C)C)NC(=O)N(Cc1ccccc1)C[C@@H](O)[C@H](Cc1ccccc1)NC(=O)OC(C)(C)C	8000
COC(=O)[C@@H](NC(=O)[C@H](CC(C)C)NC(=O)N(Cc1ccccc1)C[C@@H](O)[C@H](Cc1ccccc1)NC(=O)[C@H](CC(C)C)NC(=O)OC(C)(C)C)C(C)C	230
COC(=O)[C@H](CC(C)C)NC(=O)[C@H](CC(C)C)NC(=O)N(Cc1ccccc1)C[C@@H](O)[C@H](Cc1ccccc1)NC(=O)OC(C)(C)C	650
COC(=O)[C@@H](NC(=O)[C@H](CC(C)C)NC(=O)N(Cc1ccccc1)C[C@@H](O)[C@H](Cc1ccccc1)NC(=O)[C@H](C)NC(=O)OC(C)(C)C)C(C)C	150
COC(=O)[C@@H](NC(=O)[C@H](CC(C)C)NC(=O)N(Cc1ccccc1)C[C@@H](O)[C@H](Cc1ccccc1)NC(=O)[C@H](Cc1ccccc1)NC(=O)OC(C)(C)C)C(C)C	500
COC(=O)[C@H](Cc1ccccc1)NC(=O)[C@@H](NC(=O)N(Cc1ccccc1)C[C@@H](O)[C@H](Cc1ccccc1)NC(=O)OC(C)(C)C)C(C)C	400
COC(=O)[C@H](Cc1ccccc1)NC(=O)[C@H](Cc1ccccc1)NC(=O)N(Cc1ccccc1)C[C@@H](O)[C@H](Cc1ccccc1)NC(=O)OC(C)(C)C	18000
COC(=O)[C@@H](NC(=O)[C@H](CC(C)C)NC(=O)N(Cc1ccccc1)C[C@@H](O)[C@H](Cc1ccccc1)NC(=O)OC(C)(C)C)C(C)C	220
COC(=O)[C@H](Cc1ccccc1)NC(=O)[C@H](CC(C)C)NC(=O)N(Cc1ccccc1)C[C@@H](O)[C@H](Cc1ccccc1)NC(=O)OC(C)(C)C (stereo in doubt; 2)	390
COC(=O)[C@H](Cc1ccccc1)NC(=O)[C@H](CC(C)C)NC(=O)N(Cc1ccccc1)C[C@@H](O)[C@H](Cc1ccccc1)NC(=O)OC(C)(C)C (stereo in doubt; 9)	400
COC(=O)[C@H](Cc1ccccc1)NC(=O)[C@H](CC(C)C)NC(=O)N(Cc1ccccc1)C[C@@H](O)[C@H](Cc1ccccc1)NC(=O)OC(C)(C)C (stereo in doubt; 12)	390
